# Experimental data from patent US9540391B2, “Isomannide derivatives as inhibitors of soluble epoxide hydrolase” (SANOFI, priority 2013, dated 2017).
# Biological target: T1, recombinant sEH (Homo sapiens, UniProt P34913)
# T1 construct: made in house; host or cells: Sf9 insect cells
# T1 sequence (P34913 1-555): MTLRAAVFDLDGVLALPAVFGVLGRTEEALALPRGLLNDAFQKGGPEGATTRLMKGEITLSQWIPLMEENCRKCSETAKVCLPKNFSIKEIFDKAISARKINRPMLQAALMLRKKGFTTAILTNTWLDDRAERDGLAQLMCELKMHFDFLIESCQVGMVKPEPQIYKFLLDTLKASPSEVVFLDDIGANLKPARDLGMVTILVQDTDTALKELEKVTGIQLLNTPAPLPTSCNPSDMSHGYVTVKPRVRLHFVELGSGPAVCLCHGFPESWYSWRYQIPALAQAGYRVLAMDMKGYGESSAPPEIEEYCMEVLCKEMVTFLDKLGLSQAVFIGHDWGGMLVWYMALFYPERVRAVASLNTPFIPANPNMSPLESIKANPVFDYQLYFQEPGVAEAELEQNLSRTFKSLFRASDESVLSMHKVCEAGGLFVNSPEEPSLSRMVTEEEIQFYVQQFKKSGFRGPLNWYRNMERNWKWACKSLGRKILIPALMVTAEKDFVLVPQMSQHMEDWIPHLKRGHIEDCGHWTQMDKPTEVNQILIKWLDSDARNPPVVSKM
# Assay: biochemical screening assay for inhibition of soluble epoxide hydrolase (fluorometric, Phome substrate)
# In short: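 Human sEH from Sf9 cells (2 nM final) was pre-incubated 15 min at 30 °C with compound (0.0001–10 μM), then reacted 60 min at 30 °C with 5 μM Phome in 25 mM Hepes/0.01% albumin. Fluorescence of released 6-methoxy-2-naphthaldehyde was read before substrate and at end; IC50 from % inhibition.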
row,IC50,Compound
1,6 nM,"NC(=O)c1cccc(O[C@H]2CO[C@H]3[C@@H]2OC[C@@H]3NC(=O)NC2CCCCC2)c1 [Example 143, 3-[(3S,3aS,6S,6aR)-6-(3-Cyclohexyl-ureido)-hexahydro-furo[3,2-b]furan-3-yloxy]-benzamide]"
2,1 nM,"O=C(NC1CCCCC1)N[C@H]1CO[C@H]2[C@@H]1OC[C@@H]2Oc1cccc2c1CCC2=O [Example 144, 1-Cyclohexyl-3-[(3S,3aR,6S,6aS)-6-(1-oxo-indan-4-yloxy)-hexahydro-furo[3,2-b]furan-3-yl]-urea]"
3,14 nM,"CC1CSc2c(O[C@H]3CO[C@H]4[C@@H]3OC[C@@H]4NC(=O)NC3CCCCC3)csc21 (stereo partly drawn) [Example 145, 1-Cyclohexyl-3-[(3S,3aR,6S,6aS)-6-(6-methyl-5,6-dihydro-thieno[3,2-b]thiophen-3-yloxy)-hexahydro-furo[3,2-b]furan-3-yl]-urea]"
4,2 nM,"O=C(NC1CCCCC1)N[C@H]1CO[C@H]2[C@@H]1OC[C@@H]2Oc1ccc(F)c(Br)c1 [Example 146, 1-[(3S,3aR,6S,6aS)-6-(3-Bromo-4-fluoro-phenoxy)-hexahydro-furo[3,2-b]furan-3-yl]-3-cyclohexyl-urea]"
5,2 nM,"O=C(NC1CCCCC1)N[C@H]1CO[C@H]2[C@@H]1OC[C@@H]2Oc1cc(Br)ccc1Cl [Example 147, 1-[(3S,3aR,6S,6aS)-6-(5-Bromo-2-chloro-phenoxy)-hexahydro-furo[3,2-b]furan-3-yl]-3-cyclohexyl-urea]"
6,3 nM,"COC(=O)c1ccc2cc(O[C@H]3CO[C@H]4[C@@H]3OC[C@@H]4NC(=O)NC3CCCCC3)ccc2c1 [Example 148, 6-[(3S,3aS,6S,6aR)-6-(3-Cyclohexyl-ureido)-hexahydro-furo[3,2-b]furan-3-yloxy]-naphthalene-2-carboxylic acid methyl ester]"
7,2160 nM,"CC(C)(C)NC(=O)N[C@H]1CO[C@H]2[C@@H]1OC[C@@H]2Oc1ccc(F)cc1 [Example 149, 1-tert-Butyl-3-[(3S,3aR,6S,6aS)-6-(4-fluoro-phenoxy)-hexahydro-furo[3,2-b]furan-3-yl]-urea]"
8,16 nM,"O=C(NC1CCc2ccccc21)NC1COC2C(Oc3ccc(F)cc3)COC12 [Example 150, 1-[(3S,3aR,6S,6aS)-6-(4-Fluoro-phenoxy)-hexahydro-furo[3,2-b]furan-3-yl]-3-(S)-indan-1-yl-urea]"
9,8 nM,"CC1CCC(NC(=O)N[C@H]2CO[C@H]3[C@@H]2OC[C@@H]3Oc2ccc(F)cc2)CC1 (stereo partly drawn) [Example 151, 1-[(3S,3aR,6S,6aS)-6-(4-Fluoro-phenoxy)-hexahydro-furo[3,2-b]furan-3-yl]-3-(4-methyl-cyclohexyl)-urea]"
10,2 nM,"O=C(N[C@H]1CO[C@H]2[C@@H]1OC[C@@H]2Oc1ccc(F)cc1)N[C@@H]1CCC[C@H]1OCc1ccccc1 [Example 152, 1-((1R,2R)-2-Benzyloxy-cyclopentyl)-3-[(3S,3aR,6S,6aS)-6-(4-fluoro-phenoxy)-hexahydro-furo[3,2-b]furan-3-yl]-urea]"
11,62 nM,"O=C(N[C@H]1CO[C@H]2[C@@H]1OC[C@@H]2Oc1ccc(F)cc1)N[C@H]1CCC[C@@H]1OCc1ccccc1 [Example 153, 1-((1S,2S)-2-Benzyloxy-cyclopentyl)-3-[(3S,3aR,6S,6aS)-6-(4-fluoro-phenoxy)-hexahydro-furo[3,2-b]furan-3-yl]-urea]"
12,51 nM,"CC[C@@H](NC(=O)N[C@H]1CO[C@H]2[C@@H]1OC[C@@H]2Oc1ccc(F)cc1)c1ccccc1 [Example 154, 1-[(3S,3aR,6S,6aS)-6-(4-Fluoro-phenoxy)-hexahydro-furo[3,2-b]furan-3-yl]-3-((R)-1-phenyl-propyl)-urea]"
13,38 nM,"COc1cccc([C@@H](C)NC(=O)N[C@H]2CO[C@H]3[C@@H]2OC[C@@H]3Oc2ccc(F)cc2)c1 [Example 155, 1-[(3S,3aR,6S,6aS)-6-(4-Fluoro-phenoxy)-hexahydro-furo[3,2-b]furan-3-yl]-3-[(R)-1-(3-methoxy-phenyl)-ethyl]-urea]"
14,24 nM,"C[C@H](NC(=O)N[C@H]1CO[C@H]2[C@@H]1OC[C@@H]2Oc1ccc(F)cc1)C1CCCCC1 [Example 156, 1-((S)-1-Cyclohexyl-ethyl)-3-[(3S,3aR,6S,6aS)-6-(4-fluoro-phenoxy)-hexahydro-furo[3,2-b]furan-3-yl]-urea]"
15,11 nM,"O=C(NC1CCN(C(=O)C(F)(F)F)CC1)N[C@H]1CO[C@H]2[C@@H]1OC[C@@H]2Oc1ccc(F)cc1 [Example 157, 1-[(3S,3aR,6S,6aS)-6-(4-Fluoro-phenoxy)-hexahydro-furo[3,2-b]furan-3-yl]-3-[1-(2,2,2-trifluoro-acetyl)-piperidin-4-yl]-urea]"
16,27 nM,"O=C(NC1CCCc2ccccc21)N[C@H]1CO[C@H]2[C@@H]1OC[C@@H]2Oc1ccc(F)cc1 (stereo partly drawn) [Example 158, 1-[(3S,3aR,6S,6aS)-6-(4-Fluoro-phenoxy)-hexahydro-furo[3,2-b]furan-3-yl]-3-(1,2,3,4-tetrahydro-naphthalen-1-yl)-urea]"
17,5 nM,"C[C@@H](NC(=O)N[C@H]1CO[C@H]2[C@@H]1OC[C@@H]2Oc1ccc(F)cc1)c1ccc(F)cc1 [Example 159, 1-[(3S,3aR,6S,6aS)-6-(4-Fluoro-phenoxy)-hexahydro-furo[3,2-b]furan-3-yl]-3-[(R)-1-(4-fluoro-phenyl)-ethyl]-urea]"
18,31 nM,"C[C@H](NC(=O)N[C@H]1CO[C@H]2[C@@H]1OC[C@@H]2Oc1ccc(F)cc1)c1ccc(F)cc1 [Example 160, 1-[(3S,3aR,6S,6aS)-6-(4-Fluoro-phenoxy)-hexahydro-furo[3,2-b]furan-3-yl]-3-[(S)-1-(4-fluoro-phenyl)-ethyl]-urea]"
19,47 nM,"C[C@H](NC(=O)N[C@H]1CO[C@H]2[C@@H]1OC[C@@H]2Oc1ccc(F)cc1)c1ccccc1 [Example 161, 1-[(3S,3aR,6S,6aS)-6-(4-Fluoro-phenoxy)-hexahydro-furo[3,2-b]furan-3-yl]-3-((S)-1-phenyl-ethyl)-urea]"
20,39 nM,"C[C@@H](NC(=O)N[C@H]1CO[C@H]2[C@@H]1OC[C@@H]2Oc1ccc(F)cc1)c1ccccc1 [Example 162, 1-[(3S,3aR,6S,6aS)-6-(4-Fluoro-phenoxy)-hexahydro-furo[3,2-b]furan-3-yl]-3-((R)-1-phenyl-ethyl)-urea]"
21,192 nM,"O=C(N[C@H]1CO[C@H]2[C@@H]1OC[C@@H]2Oc1ccc(F)cc1)N[C@H]1CCCC[C@@H]1OCc1ccccc1 [Example 163, 1-((1S,2S)-2-Benzyloxy-cyclohexyl)-3-[(3S,3aR,6S,6aS)-6-(4-fluoro-phenoxy)-hexahydro-furo[3,2-b]furan-3-yl]-urea]"
22,487 nM,"O=C(N[C@H]1CO[C@H]2[C@@H]1OC[C@@H]2Oc1ccc(F)cc1)N[C@@H]1CCCC[C@H]1OCc1ccccc1 [Example 164, 1-((1R,2R)-2-Benzyloxy-cyclohexyl)-3-[(3S,3aR,6S,6aS)-6-(4-fluoro-phenoxy)-hexahydro-furo[3,2-b]furan-3-yl]-urea]"
23,21 nM,"C[C@@H](NC(=O)N[C@H]1CO[C@H]2[C@@H]1OC[C@@H]2Oc1ccc(F)cc1)C1CCCCC1 [Example 165, 1-((R)-1-Cyclohexyl-ethyl)-3-[(3S,3aR,6S,6aS)-6-(4-fluoro-phenoxy)-hexahydro-furo[3,2-b]furan-3-yl]-urea]"
24,18 nM,"C[C@@H](NC(=O)N[C@H]1CO[C@H]2[C@@H]1OC[C@@H]2Oc1ccc(F)cc1)c1ccc(Cl)cc1 [Example 166, 1-[(R)-1-(4-Chloro-phenyl)-ethyl]-3-[(3S,3aR,6S,6aS)-6-(4-fluoro-phenoxy)-hexahydro-furo[3,2-b]furan-3-yl]-urea]"
25,66 nM,"COc1ccc([C@H](C)NC(=O)N[C@H]2CO[C@H]3[C@@H]2OC[C@@H]3Oc2ccc(F)cc2)cc1 [Example 167, 1-[(3S,3aR,6S,6aS)-6-(4-Fluoro-phenoxy)-hexahydro-furo[3,2-b]furan-3-yl]-3-[(S)-1-(4-methoxy-phenyl)-ethyl]-urea]"
26,6 nM,"COc1ccc([C@@H](C)NC(=O)N[C@H]2CO[C@H]3[C@@H]2OC[C@@H]3Oc2ccc(F)cc2)cc1 [Example 168, 1-[(3S,3aR,6S,6aS)-6-(4-Fluoro-phenoxy)-hexahydro-furo[3,2-b]furan-3-yl]-3-[(R)-1-(4-methoxy-phenyl)-ethyl]-urea]"
27,4460 nM,"O=C(N[C@H]1CO[C@H]2[C@@H]1OC[C@@H]2Oc1ccc(F)cc1)NC1(c2cccs2)CCOCC1 [Example 169, 1-[(3S,3aR,6S,6aS)-6-(4-Fluoro-phenoxy)-hexahydro-furo[3,2-b]furan-3-yl]-3-(4-thiophen-2-yl-tetrahydro-pyran-4-yl)-urea]"
28,103 nM,"O=C(NC1CCOCC1)N[C@H]1CO[C@H]2[C@@H]1OC[C@@H]2Oc1ccc(F)cc1 [Example 170, 1-[(3S,3aR,6S,6aS)-6-(4-Fluoro-phenoxy)-hexahydro-furo[3,2-b]furan-3-yl]-3-(tetrahydro-pyran-4-yl)-urea]"
29,2350 nM,"Cc1cc(CNC(=O)N[C@H]2CO[C@H]3[C@@H]2OC[C@@H]3Oc2cccnc2C)on1 [Example 171, 1-(3-Methyl-isoxazol-5-ylmethyl)-3-[(3S,3aR,6S,6aS)-6-(2-methyl-pyridin-3-yloxy)-hexahydro-furo[3,2-b]furan-3-yl]-urea]"
